Experimental data published in paper PMC7335359, “Design and Synthesis of Dihydroxamic Acids as HDAC6/8/10 Inhibitors” (Chemmedchem, 2020).

Assays:
HDAC10 = target: T1, HDAC10 (Homo sapiens, UniProt Q969S8); experiment: ligand displacement TR-FRET assay, HDAC10; assay type: binding; design: host or cells: Sf21 insect cells (baculovirus); details: for IC50: ligand-displacement FRET assay, read-out: HDAC10 pIC50 (converted)
T1 sequence (Q969S8 1-669): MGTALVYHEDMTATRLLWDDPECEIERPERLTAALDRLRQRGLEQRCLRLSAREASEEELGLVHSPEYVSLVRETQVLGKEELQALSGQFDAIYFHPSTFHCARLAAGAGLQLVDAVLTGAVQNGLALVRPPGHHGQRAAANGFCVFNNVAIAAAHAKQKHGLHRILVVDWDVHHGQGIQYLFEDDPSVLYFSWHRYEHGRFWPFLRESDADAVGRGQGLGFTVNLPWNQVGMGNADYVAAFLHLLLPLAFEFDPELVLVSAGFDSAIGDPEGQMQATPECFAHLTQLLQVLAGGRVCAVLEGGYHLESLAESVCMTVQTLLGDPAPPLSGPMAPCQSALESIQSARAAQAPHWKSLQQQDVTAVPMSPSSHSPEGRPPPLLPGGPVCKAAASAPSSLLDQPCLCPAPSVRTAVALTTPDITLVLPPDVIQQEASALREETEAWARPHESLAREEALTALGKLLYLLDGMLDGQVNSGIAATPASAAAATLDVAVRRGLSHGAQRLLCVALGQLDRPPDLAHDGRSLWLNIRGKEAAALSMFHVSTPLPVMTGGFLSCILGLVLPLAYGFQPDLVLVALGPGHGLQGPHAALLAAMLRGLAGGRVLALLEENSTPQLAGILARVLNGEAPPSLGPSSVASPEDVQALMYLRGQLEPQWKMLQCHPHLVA
Procedure: Expression and purification of TwinStrepII‐GST‐HDAC10: A synthetic gene encoding TwinStrepII‐GST‐HDAC10 (human) was ordered from GeneArt (Thermo Fischer Scientific) and subcloned into the pFastBac1 vector. The resulting construct was used for transposition in E. coli DH10EMBacY cells. The isolated bacmid DNA was then used to generate the recombinant baculovirus. For protein expression, 10 mL of baculovirus was added to 1 L of Sf21 cells at a density of 1×10^6 cells/mL. The infected Sf21 cells were grown for 72 h in Sf‐900 III SFM medium (Thermo Fischer Scientific) at 27 °C. Cells were harvested by centrifugation and re‐suspended in running buffer (100 mM Tris pH 8.0, 150 mM NaCl, 1 mM EDTA and 1 mM DTT) supplemented with 10 mM MgCl2, benzonase and cOmplete protease inhibitors (Merck). […] The clarified lysate was then loaded onto a 5 mL Strep‐Tactin Superflow high capacity column (IBA) pre‐equilibrated in running buffer. After sample loading and washing, the TwinStrepII‐GST‐HDAC10 protein was eluted in running buffer supplemented with 5 mM desthiobiotin (IBA). The elution fractions containing TwinStrepII‐GST‐HDAC10 were pooled and concentrated before being injected onto a HiLoad 16/600 Superdex 200 pg size exclusion chromatography column (GE Healthcare) pre‐equilibrated with 25 mM HEPES/NaCl pH 7.5, 150 mM NaCl, 0.5 mM EDTA, 1 mM DTT and 10 % glycerol. Samples were eluted from the size exclusion chromatography column in the same buffer, flash‐frozen in liquid N2 and stored at −80 °C.
The TR‐FRET measurements of the monohydroxamic acids in this manuscript were measured in the original assay format, which is described directly below this paragraph. The TR‐FRET measurements of the dihydroxamic acids in this manuscript were measured in the modified format, which is described two paragraphs below this one.
The concentrations of reagents in 10 μL final assay volume were 3 nM GST‐HDAC10, 30 nM “Tubastatin‐Alexa647‐Tracer” and 0.5 nM Eu‐anti‐GST. GST‐HDAC10 and LanthaScreen™ Eu‐anti‐GST Antibody were purchased from Life Technologies, and the Tubastatin‐Alexa647‐Tracer was synthesized in‐house as previously described.19 An 11‐fold 1 : 3‐serial dilution of compounds starting at 2 mM was prepared in 384 well pp‐plates (Greiner) from 10 mM stocks in DMSO and 1 μL was transferred to assay plates. Nine μL of the reagent‐mix was added and the plate was incubated for 1 h at RT before TR‐FRET was measured in an EnVision™ plate reader equipped with a TR‐FRET Laser module. […] Percent inhibition was calculated for each well from negative control wells containing 2 % DMSO and positive control wells containing 20 μM SAHA. The resulting dose‐response curves were fitted in ActivityBase (IDBS) using a four‐parameter logistic model and pIC50‐values were calculated.
After drug dosing to the premixed assay reagents in buffer, plates were shaken (800 rpm orbital shaker, 30 s), centrifuged (300 g, 1 min) and incubated at room temperature in the dark for 60 min. TR‐FRET was measured with a CLARIOstar (BMG Labtech) plate reader, equipped with TR‐FRET filters.

HDAC2 = target: T2, HDAC2 (Homo sapiens, UniProt Q92769); experiment: HDAC-Glo I/II enzymatic assay, HDAC2; assay type: biochemical; details: read-out: HDAC2 pIC50 (converted)
T2 construct: purchased BPS Bioscience 50002
T2 sequence (Q92769 whole entry): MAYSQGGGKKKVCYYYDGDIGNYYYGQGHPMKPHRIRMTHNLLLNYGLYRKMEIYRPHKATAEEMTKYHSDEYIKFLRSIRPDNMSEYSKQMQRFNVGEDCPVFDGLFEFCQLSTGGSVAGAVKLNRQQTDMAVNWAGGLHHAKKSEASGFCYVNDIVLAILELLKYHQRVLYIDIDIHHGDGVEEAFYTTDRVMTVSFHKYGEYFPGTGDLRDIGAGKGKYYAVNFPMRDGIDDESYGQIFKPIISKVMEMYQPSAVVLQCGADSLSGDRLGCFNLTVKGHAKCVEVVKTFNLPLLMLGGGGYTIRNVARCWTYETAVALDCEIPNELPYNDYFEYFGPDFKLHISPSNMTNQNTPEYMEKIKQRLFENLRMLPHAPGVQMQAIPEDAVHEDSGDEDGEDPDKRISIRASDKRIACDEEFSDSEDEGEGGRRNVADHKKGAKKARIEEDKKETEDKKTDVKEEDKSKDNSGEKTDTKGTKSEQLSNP
Procedure: (§1) Inhibitors were tested at eight serial dilutions in triplicate ranging from 50 μM–86,7 pM (HDAC6) or 100 μM–8,67 nM (HDAC1,2,3,8). Drug dosing was performed from 10 mM and 0.1 mM DMSO stock solutions with a D300e Digital Dispenser (Tecan). HDACs (7 ng/mL for HDAC1, 10 ng/mL for HDAC2, 200 ng/mL for HDAC3/Ncor2 complex, 100 ng/mL for HDAC6, 200 ng/mL for HDAC8) and inhibitors were incubated together for 30 min at room temperature. After addition of the HDAC‐Glo™ I/II reagent, plates were shaken (800 rpm orbital shaker, 30 s), centrifuged (300 g, 1 min) and incubated at room temperature for 30 min. Luminescence was detected with a CLARIOstar (BMG Labtech) plate reader.

HDAC3/NcoR2 complex = target: T3, HDAC3/NcoR2 complex (Homo sapiens, UniProt O15379); experiment: HDAC-Glo I/II enzymatic assay, HDAC3; assay type: biochemical; details: read-out: HDAC3 pIC50 (converted)
T3 construct: purchased BPS Bioscience 50003
T3 sequence (O15379 whole entry): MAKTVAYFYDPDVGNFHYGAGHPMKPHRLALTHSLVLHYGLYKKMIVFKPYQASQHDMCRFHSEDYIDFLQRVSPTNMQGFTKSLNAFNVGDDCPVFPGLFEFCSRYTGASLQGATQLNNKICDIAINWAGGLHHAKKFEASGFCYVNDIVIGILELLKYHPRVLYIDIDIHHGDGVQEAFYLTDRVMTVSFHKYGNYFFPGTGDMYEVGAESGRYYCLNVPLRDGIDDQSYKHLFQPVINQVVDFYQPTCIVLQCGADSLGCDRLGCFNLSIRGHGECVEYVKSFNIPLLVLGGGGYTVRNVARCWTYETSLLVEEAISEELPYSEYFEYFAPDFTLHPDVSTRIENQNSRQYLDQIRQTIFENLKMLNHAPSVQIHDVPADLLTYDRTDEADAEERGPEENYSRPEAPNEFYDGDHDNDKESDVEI
T3 sequence (Q9Y618 395-489 partner limits assumed): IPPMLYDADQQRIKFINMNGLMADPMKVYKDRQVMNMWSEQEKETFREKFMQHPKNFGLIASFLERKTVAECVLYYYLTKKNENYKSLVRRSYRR
Procedure: as §1

HDAC1 = target: T4, HDAC1 (Homo sapiens, UniProt Q13547); experiment: HDAC-Glo I/II enzymatic assay, HDAC1; assay type: biochemical; details: read-out: HDAC1 pIC50 (converted)
T4 construct: purchased BPS Bioscience 50051
T4 sequence (Q13547 whole entry): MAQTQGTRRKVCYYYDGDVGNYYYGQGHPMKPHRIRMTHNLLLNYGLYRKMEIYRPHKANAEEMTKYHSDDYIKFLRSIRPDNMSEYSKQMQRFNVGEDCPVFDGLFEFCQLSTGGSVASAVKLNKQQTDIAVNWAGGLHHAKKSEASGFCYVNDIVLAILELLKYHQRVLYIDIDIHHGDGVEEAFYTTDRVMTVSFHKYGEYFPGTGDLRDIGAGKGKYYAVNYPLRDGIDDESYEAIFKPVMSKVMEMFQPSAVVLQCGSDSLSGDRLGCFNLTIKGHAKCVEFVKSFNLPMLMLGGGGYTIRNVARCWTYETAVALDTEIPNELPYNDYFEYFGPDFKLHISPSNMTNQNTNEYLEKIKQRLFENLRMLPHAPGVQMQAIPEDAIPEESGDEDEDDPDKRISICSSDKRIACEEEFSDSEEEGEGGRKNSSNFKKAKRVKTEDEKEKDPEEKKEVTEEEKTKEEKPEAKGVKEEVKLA
Procedure: as §1

Structure (SMILES) | IC50 (HDAC10) [nM] | IC50 (HDAC2) [µM] | IC50 (HDAC3/NcoR2 complex) [µM] | IC50 (HDAC1) [nM] | increase in HDAC10 potency over the monohydroxamic acid 1f (HDAC10; FRET assay, 3f versus 1f) [factor]
CN1CCc2c(c3ccc(C(=O)NO)cc3n2Cc2ccc(C(=O)NO)cc2)C1 [Compound 3c] | 12.3 | 4.17 | 13.5 | 501 | 
O=C(NO)c1ccc(Cn2ccc3ccc(C(=O)NO)cc32)cc1 [Compound 3a] | 2.57 | 2.24 | 5.5 | 263 | 
O=C(NO)c1ccc(Cc2c[nH]c3ccc(C(=O)NO)cc23)cc1 [Compound 3d] | 3.24 | 4.68 | 6.46 | 525 | 
CN(C)CCn1cc(Cc2ccc(C(=O)NO)cc2)c2cc(C(=O)NO)ccc21 [Compound 3e] | 3.02 | 7.08 | 6.61 | 813 | 

Continued, values first:

IC50 (HDAC10) [nM] | IC50 (HDAC2) [µM] | IC50 (HDAC3/NcoR2 complex) [µM] | IC50 (HDAC1) [nM] | increase in HDAC10 potency over the monohydroxamic acid 1f (HDAC10; FRET assay, 3f versus 1f) [factor] | Structure (SMILES)
19.5 |  |  |  |  | CN(C)Cc1nn(Cc2ccc(C(=O)NO)cc2)c2ccccc12 [Compound 1g]
3.98 | 9.55 | 6.61 | 661 |  | CN(C)Cc1nn(Cc2ccc(C(=O)NO)cc2)c2cc(C(=O)NO)ccc12 [Compound 3g]
2.82 | 5.37 | 6.92 | 617 |  | CN(C)Cc1cn(Cc2ccc(C(=O)NO)cc2)c2cc(C(=O)NO)ccc12 [Compound 3b]
3.39 | 0.724 | 1.32 | 87.1 | ~70 | O=C(NO)c1ccc(Cn2ncc3ccc(C(=O)NO)cc32)cc1 [Compound 3f]
